Experimental data taken from patent publication US11458189B2, “Cytoprotective drugs” (BALMES TRANSPLANTATION, priority 2017, dated 2022).
Starred links: 1 amine or outer side, 2 acyl side, 3 side chain; linkers in the order of their positions; H or OH if unused. Positions of bridges follow the written chain, without caps; N, C: chain ends. Non-standard residues stand in square brackets, D forms with d. Residues, ends and D or L forms follow the SMILES beside them. *: point of attachment. hTyr(3S-OH,4S-OH,3'-OSO3H) = N[C@H](C(=O)O)[C@H](O)[C@@H](O)c1ccc(O)c(OS(=O)(=O)O)c1; Orn(4R-OH,5R-OH) = O=C([C@H](C[C@@H](O)[C@@H](O)N[*:3])N[*:1])[*:2]; Pro(3S-OH,4S-Me) = C[C@H]1CN[C@H](C(=O)O)[C@H]1O; X1 = CCCCCOc1ccc(-c2cc(-c3ccc(C(=O)*)cc3)no2)cc1; Gln(3R-OH) = NC(=O)C[C@@H](O)[C@H](N)C(=O)O; Hyp = O=C(O)[C@@H]1C[C@@H](O)CN1

Test system: Rat Primary Kidney Glomerular Endothelial cells
Assay: Oxygen and glucose deprivation followed by replenishment, cell survival (calcein AM), rat glomerular endothelial cells;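 on Survival rate (%): 100% is hypoxia control with glucose and 0% is untreated OGD control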
Format: cell-based
Procedure: Anidulafungin and micafungin were tested on Human Renal Glomerular Endothelial Cells (HRGEC, Innoprot P10665), on Human Renal Proximal Tubular Epithelial Cells (HRPTEpiC, Innoprot P10662), on Human Astrocytes (HA, caltag SC-1800), on Human Cardiac Microvascular Endothelial Cells (HCMEC, Caltag SC-6000), on Human Hepatic Sinusoidal Endothelial Cells (HHSEC, Caltag SC-5000), on Rat Primary Kidney Glomerular Endothelial cells (Cellbiologics, RN-6014G) and on Bovine Brain Microvascular Endothelial Cells (BBMEC, Caltag SC-B100).
In a first phase, these isolated, purified and cryopreserved cells are thawed and multiplied according to the supplier's recommendations in T75 or T175 flasks pre-coated with 2 μg of fibronectin/[…] (CORNING) for HRGEC, HCMEC, HHSEC and BBMEC, or 2 μg poly-L-lysin/cm^2 (Caltag SC-0403) for HRPTEpiC and HA, or 15 mL/flask 175 cm^2 gelatin-based solution (Cellbiologics) in the presence of endothelial cell supplemented growth medium ECM (P60104, INNOPROT, Caltag, SC-1001) for HRGEC, HCMEC, HHSEC, RPKGEC or BBMEC, or astrocyte cell supplemented growth medium AM (Caltag SC-1801) for HA or epithelial cell supplemented growth medium EpiCM (P60106, INNOPROT) for HRPTEpiC, at 37° C. under 5% CO2 and saturated humidity until their confluency. They are then harvested by trypsinization according to the method described by the supplier for exactly 5 minutes and then reseeded in new flasks a maximum of three times.
To carry out the oxygen and glucose deprivation test followed by their replenishment, the cells will be seeded in 96-well black plates with transparent flat bottom (GREINER). Once a sufficient number of cells has been obtained to allow seeding of 2000 to 15000 cells per well of 96-well plates depending on the cell type, the cells are seeded in these 96-well plates previously coated with an extracellular matrix as listed above for the flasks. The cells are cultured for 5 to 8 days according to the cell type, in the presence of the same growth medium as in the flask as described above except for HRGEC and HRPTEpiC for which DMEM (DUTSCHER) with 1 g/L of supplemented glucose is used, at 37° C. under 5% CO2 and saturated humidity to obtain confluency.
On the first day of oxygen and glucose deprivation, (5th, 6th, 7th or 8th day of culture), the culture conditions are drastically changed. The medium of all plates is removed and replaced by DMEM (DUTSCHER) medium without glucose and supplemented only with 1% penicillin-streptomycin (DUTSCHER). Anidulafungin or micafungin dissolved in dimethyl sulfoxide (DMSO) is then added to each well at the desired concentration, resulting in a maximum of 1% DMSO, and the plates are placed under hypoxia at <1% 02 and 5% CO2 at 37° C. for 24 hours of culture. Each compound was tested in a concentration range.
After 24 hours, the growth medium is changed and replaced by a richer medium, DMEM (DUTSCHER) at 1 g/L glucose and 2% FBS (INNOPROT) and 1% penicillin-streptomycin (DUTSCHER). These media will have been pre-equilibrated at 37° C. in advance. The cells are then returned to culture at 37° C. under 20% 02 and 5% CO2 for 22h.
After 22 hours of reoxygenation, the potential protective effect of anidulafungin or micafungin is measured by a cell viability test using calcein AM (CORNING), which is a dye substrate. The calcein AM can easily cross the cell membrane of the viable cells. The AM ester groups mask the part of the molecule that chelates calcium. Once inside the cells, the (non-fluorescent) calcein AM is hydrolyzed to (fluorescent) calcein by endogenous esterases. The resulting calcein molecule binds to calcium inside the cell and remains trapped inside the cell. These molecules emit strong green fluorescence when subjected to […] of a particular wavelength (495 nm). Since dead cells lack esterase activity, only living cells are labelled.
This cell viability test is performed in two steps. […]

Structure (SMILES): CCCCCOc1ccc(-c2cc(-c3ccc(C(=O)N[C@H]4C[C@@H](O)[C@@H](O)NC(=O)[C@@H]5[C@@H](O)[C@@H](C)CN5C(=O)[C@H]([C@H](O)CC(N)=O)NC(=O)[C@H]([C@H](O)[C@@H](O)c5ccc(O)c(OS(=O)(=O)O)c5)NC(=O)[C@@H]5C[C@@H](O)CN5C(=O)[C@H]([C@@H](C)O)NC4=O)cc3)no2)cc1 [Micafungin, {5-[(1S,2S)-2-[(3S,6S,9S,11R,15S,18S,20R,21R,24S,25S,26S)-3-[(1R)-2-carbamoyl-1-hydroxyethyl]-11,20,21,25-tetrahydroxy-15-[(1R)-1-hydroxyethyl]-26-methyl-2,5,8,14,17,23-hexaoxo-18-[(4-{5-[4-(pentyloxy)phenyl]-1,2-oxazol-3-yl}benzene)amido]-1,4,7,13,16,22-hexaazatricyclo[22.3.0.0]heptacosan-6-yl]-1,2-dihydroxyethyl]-2-hydroxyphenyl}oxidanesulfonic acid] (X1-[Orn(4R-OH,5R-OH)]T[Hyp][hTyr(3S-OH,4S-OH,3'-OSO3H)][Gln(3R-OH)][Pro(3S-OH,4S-Me)]; lactam 1-C)
- Globalfluo assay 1 ([Micafungin] log μM 1.176091): 17307060 arbitrary units
- Globalfluo assay 2 ([Micafungin] log μM 1.176091): 19173810 arbitrary units
- Globalfluo assay 3 ([Micafungin] log μM 1.176091): 18057880 arbitrary units
- Mean globalfluo ([Micafungin] log μM 1.176091): 18179583 arbitrary units
- Survival rate (%) ([Micafungin] log μM 1.176091): 57%
- Globalfluo assay 1 ([Micafungin] log μM 1.30103): 21761030 arbitrary units
- Globalfluo assay 2 ([Micafungin] log μM 1.30103): 21216730 arbitrary units
- Globalfluo assay 3 ([Micafungin] log μM 1.30103): 18246850 arbitrary units
- Mean globalfluo ([Micafungin] log μM 1.30103): 20408203 arbitrary units
- Survival rate (%) ([Micafungin] log μM 1.30103): 66%
- Globalfluo assay 1 ([Micafungin] log μM 1.477121): 23916400 arbitrary units
- Globalfluo assay 2 ([Micafungin] log μM 1.477121): 22885210 arbitrary units
- Globalfluo assay 3 ([Micafungin] log μM 1.477121): 21104460 arbitrary units
- Mean globalfluo ([Micafungin] log μM 1.477121): 22635357 arbitrary units
- Survival rate (%) ([Micafungin] log μM 1.477121): 75%
- Globalfluo assay 1 ([Micafungin] log μM 1.60206): 21279700 arbitrary units
- Globalfluo assay 2 ([Micafungin] log μM 1.60206): 21255650 arbitrary units
- Globalfluo assay 3 ([Micafungin] log μM 1.60206): 20543100 arbitrary units
- Mean globalfluo ([Micafungin] log μM 1.60206): 21026150 arbitrary units
- Survival rate (%) ([Micafungin] log μM 1.60206): 69%
- Globalfluo assay 1 ([Micafungin] log μM 1.778151): 22384980 arbitrary units
- Globalfluo assay 2 ([Micafungin] log μM 1.778151): 24586670 arbitrary units
- Globalfluo assay 3 ([Micafungin] log μM 1.778151): 22823930 arbitrary units
- Mean globalfluo ([Micafungin] log μM 1.778151): 23265193 arbitrary units
- Survival rate (%) ([Micafungin] log μM 1.778151): 78%
- Globalfluo assay 1 ([Micafungin] log μM 1.90309): 25482590 arbitrary units
- Globalfluo assay 2 ([Micafungin] log μM 1.90309): 16667370 arbitrary units
- Globalfluo assay 3 ([Micafungin] log μM 1.90309): 22222960 arbitrary units
- Mean globalfluo ([Micafungin] log μM 1.90309): 21457640 arbitrary units
- Survival rate (%) ([Micafungin] log μM 1.90309): 71%
- Globalfluo assay 1 ([Micafungin] log μM 2): 23318050 arbitrary units
- Globalfluo assay 2 ([Micafungin] log μM 2): 20442770 arbitrary units
- Globalfluo assay 3 ([Micafungin] log μM 2): 22906760 arbitrary units
- Mean globalfluo ([Micafungin] log μM 2): 22222527 arbitrary units
- Survival rate (%) ([Micafungin] log μM 2): 74%
- Globalfluo assay 1 ([Micafungin] log μM 2.176091): 20166170 arbitrary units
- Globalfluo assay 2 ([Micafungin] log μM 2.176091): 24333680 arbitrary units
- Globalfluo assay 3 ([Micafungin] log μM 2.176091): 26066530 arbitrary units
- Mean globalfluo ([Micafungin] log μM 2.176091): 23522127 arbitrary units
- Survival rate (%) ([Micafungin] log μM 2.176091): 79%
- Globalfluo assay 1 ([Micafungin] log μM −0.154902): 3831476 arbitrary units
- Globalfluo assay 2 ([Micafungin] log μM −0.154902): 4395798 arbitrary units
- Globalfluo assay 3 ([Micafungin] log μM −0.154902): 3538568 arbitrary units
- Mean globalfluo ([Micafungin] log μM −0.154902): 3921947 arbitrary units
- Survival rate (%) ([Micafungin] log μM −0.154902): 0%
- Globalfluo assay 1 ([Micafungin] log μM −0.30103): 4962690 arbitrary units
- Globalfluo assay 2 ([Micafungin] log μM −0.30103): 4263110 arbitrary units
- Globalfluo assay 3 ([Micafungin] log μM −0.30103): 4133198 arbitrary units
- Mean globalfluo ([Micafungin] log μM −0.30103): 4452999 arbitrary units
- Survival rate (%) ([Micafungin] log μM −0.30103): 2%
- Globalfluo assay 1 ([Micafungin] log μM −0.5228788): 4164368 arbitrary units
- Globalfluo assay 2 ([Micafungin] log μM −0.5228788): 5246152 arbitrary units
- Globalfluo assay 3 ([Micafungin] log μM −0.5228788): 3621246 arbitrary units
- Mean globalfluo ([Micafungin] log μM −0.5228788): 4343922 arbitrary units
- Survival rate (%) ([Micafungin] log μM −0.5228788): 2%
- Globalfluo assay 1 ([Micafungin] log μM −1): 4086038 arbitrary units
- Globalfluo assay 2 ([Micafungin] log μM −1): 5779074 arbitrary units
- Globalfluo assay 3 ([Micafungin] log μM −1): 4555233 arbitrary units
- Mean globalfluo ([Micafungin] log μM −1): 4806782 arbitrary units
- Survival rate (%) ([Micafungin] log μM −1): 4%
- Globalfluo assay 1 ([Micafungin] log μM −2): 4295861 arbitrary units
- Globalfluo assay 2 ([Micafungin] log μM −2): 4126418 arbitrary units
- Globalfluo assay 3 ([Micafungin] log μM −2): 4707699 arbitrary units
- Mean globalfluo ([Micafungin] log μM −2): 4376659 arbitrary units
- Survival rate (%) ([Micafungin] log μM −2): 2%
- Globalfluo assay 1 ([Micafungin] log μM −3): 4397869 arbitrary units
- Globalfluo assay 2 ([Micafungin] log μM −3): 4804046 arbitrary units
- Globalfluo assay 3 ([Micafungin] log μM −3): 3922702 arbitrary units
- Mean globalfluo ([Micafungin] log μM −3): 4374872 arbitrary units
- Survival rate (%) ([Micafungin] log μM −3): 2%
